Assay results as given in patent US20230285294A1, “METHOD AND SYSTEM FOR OTOTOPICAL DELIVERY USING NANOPARTICLES FOR EAR INFECTION DIAGNOSIS AND TREATMENT” (THE BOARD OF TRUSTEES OF THE LELAND STANFORD JUNIOR …, priority 2020, published 2023).

Tested on: eardrum
Assay: Confocal microscopy of ear sections: permeation of vesicles through the eardrum into the middle and inner ear
From the text: Further consideration of the various images in FIGS. 10A-11D one may observe from these confocal images of eardrum and vesicles penetration into the middle ear at different time points. To verify the permeation of the formulated vesicles through the eardrum we looked at the ear sections under confocal microscopy. […] (See FIG. 11B).
FIGS. 12A-14D relate to a series of confocal imaging at higher magnification of tympanic membrane.
FIG. 15A is showing imaging specificity of TF-RnB in red. FIG. 15B is showing imaging specificity to DAPI in blue. FIG. 15C is showing a color composite overlay of the images in FIGS. 15A and 15B.
These confocal images from inner ear show particle penetrations beyond the middle ear to inner ear. (FIG. 15C). As such, it is believed that potential applications of various embodiments of a liposomal nanoparticle may be used for inner ear drug delivery.

penetration through eardrum into middle ear (confocal fluorescence) (6 h post-treatment): did not observe any fluorescent
SMILES: CCN(CC)c1ccc2c(-c3ccccc3C(=O)O)c3ccc(=[N+](CC)CC)cc-3oc2c1.[Cl-] [pure RhB, Rhodamine B]
penetration of tympanic membrane layers (confocal imaging at higher magnification) (6 hours, FIGS. 12D and 14D): stays on the surface of tympanic membrane without any penetration
